Measured values taken from US6255089A (priority 1998, dated 2001).
Read-outs that look alike come from different tables or passages of the source.

Legend:
native 5-HT2A receptor [1] = target: T1, native 5-HT2A receptor (Rattus norvegicus, UniProt P14842); type: cell-based; conditions: 10 μM 5-HT
T1 construct: expressed in transfected cells; host or cells: COS-7

[2] = target: T2, cys→lys mutant 5-HT2A receptor (Rattus norvegicus, UniProt P14842, C322K); type: binding; parameters: expressed in transfected cells; host or cells: COS-7; conditions: for change in binding affinity at the mutant 5-HT2A receptor: cys→lys mutant versus native, 3H-ketanserin
Protocol: Saturation experiments were performed by using [^3 H]ketanserin (0.1-5.0 nM).

[3] = target: T2, cys→lys mutant 5-HT2A receptor; conditions: saturation analysis
Protocol: (§1) Bmax values were determined by a BCA assay.
(§2) BMAX values were determined by a BCA assay.

native 5-HT2A receptor [4] = target: T1, native 5-HT2A receptor; type: binding; conditions: 3H-ketanserin saturation
Protocol: as §1, §2

5-HT2C receptor = type: binding, rat; conditions: COS-7; native versus ser→lys and ser→phe mutant
[5] = test system: 5-HT2A cys→lys mutant receptor; conditions: inverse agonism; for reduction of constitutively activated IP basal activity: mutated 5-HT2A cys→lys receptor
[6] = test system: basal levels of IP production; type: cell-based, rat; conditions: COS-7, no agonist

T2 sequence (P14842 whole entry C322K): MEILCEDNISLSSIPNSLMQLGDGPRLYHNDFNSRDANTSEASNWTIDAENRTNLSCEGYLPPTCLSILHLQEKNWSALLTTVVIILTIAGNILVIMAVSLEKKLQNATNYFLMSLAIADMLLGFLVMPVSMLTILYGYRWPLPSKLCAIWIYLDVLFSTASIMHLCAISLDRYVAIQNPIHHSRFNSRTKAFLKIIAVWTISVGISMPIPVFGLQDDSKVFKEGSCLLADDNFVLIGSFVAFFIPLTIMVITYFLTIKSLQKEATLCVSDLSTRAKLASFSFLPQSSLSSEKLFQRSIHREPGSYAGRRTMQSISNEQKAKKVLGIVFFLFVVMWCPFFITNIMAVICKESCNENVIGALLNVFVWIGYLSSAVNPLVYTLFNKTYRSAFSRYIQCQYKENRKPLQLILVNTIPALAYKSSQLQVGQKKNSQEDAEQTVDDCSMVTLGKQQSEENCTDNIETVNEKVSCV
T1 sequence (P14842 whole entry): as the sequence (P14842 whole entry C322K) above, with K322C counted along it

For `NCCc1c[nH]c2ccc(O)cc12` [5-HT, serotonin], the “additional increase in IP production upon addition of 5-HT” value (native 5-HT2A receptor [1]) was “additional increase in IP production”.

`COc1cc(CC(C)N)c(OC)cc1Br` (stereo not shown) [DOB] was tested, and the “fold increase in affinity (Ki)” value ([2]; rat, cos-7 cells) was 7.4 fold.

In the case of `COc1cc(CC(C)N)c(OC)cc1C` (stereo not shown) [DOM], the “fold increase in affinity (Ki)” value ([2]; cys→lys mutant versus native 5-HT2A receptor) is reported as 5 fold.

In the case of `O=C(c1ccc(F)cc1)C1CCN(CCn2c(=O)[nH]c3ccccc3c2=O)CC1` [^3 H-ketanserin], the “KD of 3H-ketanserin, native versus mutant” value [3] is reported as “did not differ between the native and mutant receptors” and the BMAX (native 5-HT2A receptor [4]) is reported as 193 ± 37 fmol/mg.

For `CN1C[C@@H](NS(=O)(=O)N(C)C)C[C@@H]2c3cccc4c3c(cn4C)C[C@H]21` [^3 H-mesulergine], the “5-HT2C receptor density (3H-mesulergine saturation)” value (5-HT2C receptor) was “greater in cells transfected with native receptors than in cells transfected with either the ser→lys or the ser→phe mutant receptors”.

`O=C(c1ccc(F)cc1)C1CCN(CCn2c(=O)[nH]c3ccccc3c2=O)CC1` [ketanserin] was tested, and the “change in binding affinity at the mutant 5-HT2A receptor” value (from here on “change in binding affinity”) [2] was “no change in binding affinity” and the “decrease of the constitutive IP stimulation” value ([5]; COS-7, 5-HT2A cys→lys receptor) was 80%.

For `CN1CCN(C2=Nc3ccccc3Oc3ccc(Cl)cc32)CC1` [loxapine], the “reduction of constitutively activated IP basal activity” value [5] was “reduce the constitutively activated IP basal activity”.

With `CN1CCN2c3ccccc3Cc3ccccc3C2C1` (stereo not shown) [mianserin] the “change in binding affinity” value [2] was “apparent decease in the binding affinity”.

With `O=C(CCCN1CCC2(CC1)C(=O)NCN2c1ccccc1)c1ccc(F)cc1` [spiperone] the “change in binding affinity” value [2] was “no change in binding affinity” and the “reduction of constitutively activated IP basal activity” value [5] was “reduce the constitutively activated IP basal activity”.

B1: ser→phe mutant 5-HT2C receptors: rat 5-HT2C receptor with serine #312 mutated to phenylalanine (protein, UniProt P08909 33-460, looked up, variant S312F)
5-hydroxytryptamine receptor …: IVTDTFNSSDGGRLFQFPDGVQNWPALSIVVIIIMTIGGNILVIMAVSMEKKLHNATNYFLMSLAIADMLVGLLVMPLSLLAILYDYVWPLPRYLCPVWISLDVLFSTASIMHLCAISLDRYVAIRNPIEHSRFNSRTKAIMKIAIVWAISIGVSVPIPVIGLRDESKVFVNNTTCVLNDPNFVLIGSFVAFFIPLTIMVITYFLTIYVLRRQTLMLLRGHTEEELANMSLNFLNCCCKKNGGEEENAPNPNPDQKPRRKKKEKRPRGTMQAINNEKKAFKVLGIVFFVFLIMWCPFFITNILSVLCGKACNQKLMEKLLNVFVWIGYVCSGINPLVYTLFNKIYRRAFSKYLRCDYKPDKKPPVRQIPRVAATALSGRELNVNIYRHTNERVARKANDPEPGIEMQVENLELPVNPSNVVSERISSV
In the case of B1, the “fold increase in basal levels of IP production compared with cells expressing native 5-HT2C receptors” value [6] is reported as 2 fold.
